Laboratory results taken from patent US20200147055A1, “COMPOSITIONS AND METHODS FOR TREATING DRY EYE SYNDROME DELIVERING ANTIBIOTIC MACROLIDE” (Eximore Ltd., priority 2017, published 2020).

Assay: In vitro release of Tacrolimus from plug samples into releasing medium buffer (PBS + BAK + Triton) at 37 degrees Celsius, HPLC-MS-MS
Type: physicochemical
Settings: implants contain approximately 900 micrograms of TAC
Experimental: In an example of an embodiment of the composition of the present invention, plug samples containing Tacrolimus were prepared. Samples were incubated at 37 degrees Celsius for varying times to determine time effect on Tacrolimus release profile from the sample into a polar solution (PBS).
The solution included the following: 0.01M PBS, 0.005% BAK, and 0.1% TRITON X-100.
Composite weight 3 mg with 30% Tacrolimus.
Development of HPLC-MS-MS Method for Tacrolimus (TCM)
Table 2 provides a list of samples used in the sustained release profile and cumulative sustained release profile illustrated in FIGS. 4 and 5, respectively. Samples 19-1 to 19-8 are Type A, COM TAC 1. Samples 19-9 to 19-16 are Type A, COM TAC 2. Samples 19-17 to 19-24 are Type B, EPO TAC 1. Samples 19-25 to 19-32 are Type B, EPO TAC 2.

SMILES: C=CC[C@@H]1/C=C(\C)C[C@H](C)C[C@H](OC)[C@H]2O[C@@](O)(C(=O)C(=O)N3CCCC[C@H]3C(=O)O[C@H](/C(C)=C/[C@@H]3CC[C@@H](O)[C@H](OC)C3)[C@H](C)[C@@H](O)CC1=O)[C@H](C)C[C@@H]2OC [TAC, (3S,4R,5S,8R,9E,12S,14S,15R,16S,18R,19R,26aS)-5,19-dihydroxy-3-{(1E)-1-[(1R,3R,4R)-4-hydroxy-3-methoxycyclohexyl]prop-1-en-2-yl}-14,16-dimethoxy-4,10,12,18-tetramethyl-8-(prop-2-en-1-yl)-5,6,8,11,12,13,14,15,16,17,18,19,24,25,26,26a-hexadecahydro-3H-15,19-epoxypyrido[2,1-c][1,4]oxazacyclotricosine-1,7,20,21(4H,23H)-tetrone]
- TAC average release in vitro (first 3 months): about 1.7 μg/day
- TAC release in vitro (first month): 2 µg/day
- TAC steady state release in vitro (following 2-3 months): 1.5 µg/day
- estimated duration of release in vitro: 6 months
